Test results: US20140135319A1, “6-SUBSTITUTED IMIDAZOPYRAZINES FOR USE AS MPS-1 AND TKK INHIBITORS IN THE TREATMENT OF HYPERPROLIFERATIVE DISORDERS” (BAYER INTELLECTUAL PROPERTY GMBH, priority 2010, published 2014)

Target: T1, human kinase Mps-1 (Homo sapiens, UniProt P33981)
T1 construct: N-terminally GST-tagged human full length recombinant Mps-1 kinase; GST (N); purchased Invitrogen, Karslruhe, Germany PV4071
T1 sequence (P33981 1-857): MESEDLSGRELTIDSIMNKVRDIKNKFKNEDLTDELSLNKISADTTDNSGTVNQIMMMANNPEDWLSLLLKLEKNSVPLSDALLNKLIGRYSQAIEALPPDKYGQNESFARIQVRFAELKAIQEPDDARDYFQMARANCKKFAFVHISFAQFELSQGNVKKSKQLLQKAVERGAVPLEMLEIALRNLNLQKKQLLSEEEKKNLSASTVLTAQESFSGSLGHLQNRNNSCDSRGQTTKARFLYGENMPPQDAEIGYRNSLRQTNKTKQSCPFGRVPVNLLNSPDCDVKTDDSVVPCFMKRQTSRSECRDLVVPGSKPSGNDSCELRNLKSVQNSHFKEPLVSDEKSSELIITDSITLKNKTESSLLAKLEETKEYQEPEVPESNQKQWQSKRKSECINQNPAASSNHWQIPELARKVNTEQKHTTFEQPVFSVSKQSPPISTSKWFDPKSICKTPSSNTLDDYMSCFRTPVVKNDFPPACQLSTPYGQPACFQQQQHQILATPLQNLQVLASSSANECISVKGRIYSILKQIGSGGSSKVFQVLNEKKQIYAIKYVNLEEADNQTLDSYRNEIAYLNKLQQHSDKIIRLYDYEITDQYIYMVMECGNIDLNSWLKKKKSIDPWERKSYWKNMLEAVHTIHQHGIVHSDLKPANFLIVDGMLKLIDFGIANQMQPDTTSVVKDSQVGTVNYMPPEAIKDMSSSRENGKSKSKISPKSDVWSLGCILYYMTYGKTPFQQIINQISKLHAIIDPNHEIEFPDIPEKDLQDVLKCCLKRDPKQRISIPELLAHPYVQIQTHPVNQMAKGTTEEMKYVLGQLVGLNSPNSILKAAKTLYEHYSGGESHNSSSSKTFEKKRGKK
Assay: Mps-1 kinase assay (TR-FRET)
Type: biochemical
Details: GST-tagged human full length recombinant Mps-1; 10 μM ATP; 1 μM peptide substrate; 60 min at 22° C.
Protocol: The human kinase Mps-1 phosphorylates a biotinylated substrate peptide. Detection of the phosphorylated product is achieved by time-resolved fluorescence resonance energy transfer (TR-FRET) from Europium-labelled anti-phospho-Serine/Threonine antibody as donor to streptavidin labelled with cross-linked allophycocyanin (SA-XLent) as acceptor. Compounds are tested for their inhibition of the kinase activity.
N-terminally GST-tagged human full length recombinant Mps-1 kinase (purchased from Invitrogen, Karslruhe, Germany, cat. no PV4071) was used. As substrate for the kinase reaction a biotinylated peptide of the amino-acid sequence […] (C-terminus in amide form, purchased from Biosynthan GmbH, Berlin) was used.
The concentration of Mps-1 in the assay was adjusted to the activity of the enzyme lot and was chosen appropriate to have the assay in the linear range, typical enzyme concentrations were in the range of about 1 nM (final conc. in the 5 μl assay volume).
The resulting mixture was incubated 1 h at 22° C. to allow the binding of the phosphorylated peptide to the anti-phospho(Ser/Thr)-Europium-antibody. Subsequently the amount of phosphorylated substrate was evaluated by measurement of the resonance energy transfer from the Europium-labelled anti-phospho(Ser/Thr) antibody to the Streptavidin-XLent. Therefore, the fluorescence emissions at 620 nm and 665 nm after excitation at 350 nm was measured in a Viewlux TR-FRET reader (PerkinElmer LAS, Rodgau-Jügesheim, Germany). The “blank-corrected normalized ratio” (a Viewlux specific readout, similar to the traditional ratio of the emissions at 665 nm and at 622 nm, in which blank and Eu-donor crosstalk are subtracted from the 665 nm signal before the ratio is calculated) was taken as the measure for the amount of phosphorylated substrate.

Compound	IC50 [nM]
CC(C)CNc1nc(CCCN(C)C)cn2c(-c3ccc(C(=O)NC4CC4)cc3)cnc12 [Example 7-2, N-cyclopropyl-4-{6-[3-(dimethylamino)propyl]-8-[(2-methylpropyl)amino]imidazo[1,2-a]pyrazin-3-yl}benzamide]	42.2
CC(C)CNc1nc(-c2csc3ccccc23)cn2c(-c3ccc(C(=O)NC4CC4)cc3)cnc12 [Example 1-14, 4-{6-(1-benzothiophen-3-yl)-8-[(2-methylpropyl)amino]imidazo[1,2-a]pyrazin-3-yl}-N-cyclo-propylbenzamide]	6.9
CC(C)CNc1nc(CCC(C)(C)O)cn2c(-c3ccc(C(=O)NC4CC4)cc3)cnc12 [Example 7-1, N-cyclopropyl-4-{6-(3-hydroxy-3-methylbutyl)-8-[(2-methylpropyl)amino]imidazo[1,2-a]pyrazin-3-yl}benzamide]	6.9
Cc1ccc(-c2cn3c(-c4ccc(C(=O)NC5CC5)cc4)cnc3c(NCC(C)C)n2)cc1CC(N)=O [Example 1-87, 4-{6-[3-(2-amino-2-oxoethyl)-4-methylphenyl]-8-(isobutyl-amino)imidazo[1,2-a]pyrazin-3-yl}-N-cyclopropyl-benzamide]	2.3
CCOC(C)CNc1nc(-c2ccncc2)cn2c(-c3ccc(C(=O)NC4CC4)cc3)cnc12 (stereo not shown) [Example 3-30, N-cyclopropyl-4-{8-[(2-ethoxypropyl)amino]-6-(pyridin-4-yl)imidazo [1,2-a]pyrazin-3-yl} benzamide]	7.1
CC(C)CNc1nc(-c2ccn[nH]2)cn2c(-c3ccc(C(=O)NC4CC4)c(Cl)c3)cnc12 [Example 1-34, 2-chloro-N-cyclopropyl-4-{8-[(2-methylpropyl)amino]-6-(1H-pyrazol-5-yl)imidazo[1,2-a]pyrazin-3-yl}benzamide]	35.7
Cc1cc(-c2cnc3c(NCC4CC(=O)N(C)C4)nc(C4=CCOCC4)cn23)ccc1C(=O)NC1CC1 (stereo not shown) [Example 6-15, N-cyclopropyl-4-[6-(3,6-dihydro-2H-pyran-4-yl)-8-{[(1-methyl-5-oxopyrrolidin-3-yl)methyl]amino}imidazo[1,2-a]pyrazin-3-yl]-2-methylbenzamide]	44.8
Cn1nccc1CNc1nc(-c2ccoc2)cn2c(-c3ccc(C(=O)NC4CC4)c(Cl)c3)cnc12 [Example 1-47, 2-chloro-N-cyclopropyl-4-[6-(furan-3-yl)-8-{[(1-methyl-1H-pyrazol-5-yl)methyl]amino}imidazo [1,2-a]pyrazin-3-yl] benzamide]	25.5
CC(C)CNc1nc(-c2ccnn2C)cn2c(-c3ccc(C(=O)NC4CC4)cc3)cnc12 [Example 1-13, N-cyclopropyl-4-{8-[(2-methylpropyl)amino]-6-(1-methyl-1H-pyrazol-5-yl)imidazo[1,2-a]pyrazin-3-yl}benzamide]	29.5
CC(C)CNc1nc(C(=O)Nc2ccccc2)cn2c(-c3ccc(C(=O)NC4CC4)cc3)cnc12 [Example 8-1, 3-[4-(cyclopropylcarbamoyl)phenyl]-8-[(2-methylpropyl)amino]-N-phenylimidazo[1,2-a]pyrazine-6-carboxamide]	67.2
CC(C)CNc1nc(-c2ccc3c(ccn3C)c2)cn2c(-c3ccc(C(=O)NC4CC4)cc3)cnc12 [Example 1-6, N-cyclopropyl-4-{6-(1-methyl-1H-indol-5-yl)-8-[(2-methylpropyl)amino]imidazo[1,2-a]pyrazin-3-yl}benzamide]	6.8
Cn1nccc1CNc1nc(-c2ccncc2)cn2c(-c3ccc(C(=O)NC4CC4)cc3)cnc12 [Example 3-28, N-cyclopropyl-4-[8-{[(1-methyl-1H-pyrazol-5-yl)methyl]amino}-6-(pyridin-4-yl)imidazo [1,2-a]pyrazin-3-yl] benzamide]	2.8
O=C(NC1CC1)c1ccc(-c2cnc3c(NCC(F)F)nc(-c4ccncc4)cn23)cc1 [Example 3-26, N-cyclopropyl-4-{8-[(2,2-difluoroethyl)amino]-6-(pyridin-4-yl)imidazo [1,2-a]pyrazin-3-yl} benzamide]	5.4
CC(=O)Nc1ccc(-c2cn3c(-c4ccc(C(=O)NC5CC5)cc4)cnc3c(NCC(C)C)n2)cn1 [Example 1-25, 4-{6-[6-(acetylamino)pyridin-3-yl]-8-[(2-methyl-propyl)amino]imidazo [1,2-a]pyrazin-3-yl}-N-cyclopropylbenzamide]	8.9
O=C(NC1CC1)c1ccc(-c2cnc3c(NCCC(F)(F)F)nc(C4=CCOCC4)cn23)cc1F [Example 1-56, N-cyclopropyl-4-{6-(3,6-dihydro-2H-pyran-4-yl)-8-[(3,3,3-trifluoro-propyl)amino]imidazo [1,2-a]pyrazin-3-yl}-2-fluorobenzamide]	8.7
O=C(NC1CC1)c1ccc(-c2cnc3c(NCC4CCCO4)nc(-c4ccncc4)cn23)cc1Cl (stereo not shown) [Example 1-42, 2-chloro-N-cyclopropyl-4-{6-(pyridin-4-yl)-8-[(tetrahydrofuran-2-ylmethyl)amino]imidazo [1,2-a]pyrazin-3-yl} benzamide]	40.9
Cc1nnc(-c2ccc(-c3cn4c(-c5ccc(C(=O)NC6CC6)cc5)cnc4c(NCC(C)C)n3)cc2)o1 [Example 1-22, N-cyclopropyl-4-{6-[4-(5-methyl-1,3,4-oxadiazol-2-yl)phenyl]-8-[(2-methylpropyl)amino]imidazo[1,2-a]pyrazin-3-yl}benzamide]	2.3
O=C(NC1CC1)c1ccc(-c2cnc3c(NCCC(F)(F)F)nc(-c4ccn[nH]4)cn23)cc1F [Example 1-55, N-cyclopropyl-2-fluoro-4-{6-(1H-pyrazol-5-yl)-8-[(3,3,3-trifluoropropyl)amino]imidazo[1,2-a]pyrazin-3-yl}benzamide]	9.6
O=C(NC1CC1)c1ccc(-c2cnc3c(NCCC(F)(F)F)nc(-c4ccoc4)cn23)cc1Cl [Example 1-37, 2-chloro-N-cyclopropyl-4-{6-(furan-3-yl)-8-[(3,3,3-trifluoropropyl)amino]imidazo[1,2-a]pyrazin-3-yl}benzamide]	8.1
CC(C)CNc1nc(Oc2ccccc2)cn2c(-c3ccc(C(=O)NC4CC4)cc3)cnc12 [Example 13-1]	1
O=C(NC1CC1)c1ccc(-c2cnc3c(NCC4CCCO4)nc(-c4ccncc4)cn23)cc1 (stereo not shown) [Example 3-7, N-cyclopropyl-4-{6-(pyridin-4-yl)-8-[(tetrahydrofuran-2-ylmethyl)amino]imidazo[1,2-a]pyrazin-3-yl}benzamide]	2.4
COc1cc(C(=O)NC2CC2)ccc1-c1cnc2c(NCCCN)nc(-c3ccnn3C)cn12 [Example 1-102, 4-{8-[(3-Aminopropyl)amino]-6-(1-methyl-1H-pyrazol-5-yl)imidazo[1,2-a]pyrazin-3-yl}-N-cyclopropyl-3-methoxybenzamide]	531
Cc1cc(-c2cnc3c(NCC4CCC(C)(O)CC4)nc(C4=CCOCC4)cn23)ccc1C(=O)NC1CC1 (stereo not shown) [Example 6-8, N-cyclopropyl-4-[6-(3,6-dihydro-2H-pyran-4-yl)-8-{[(4-hydroxy-4-methylcyclohexyl)methyl]amino}imidazo[1,2-a]pyrazin-3-yl]-2-methylbenzamide]	11.1
Cc1ccc2sc(-c3cn4c(-c5ccc(C(=O)NC6CC6)cc5)cnc4c(NCC(C)C)n3)cc2c1 [Example 1-16, N-cyclopropyl-4-{6-(5-methyl-1-benzothiophen-2-yl)-8-[(2-methylpropyl)amino]imidazo[1,2-a]pyrazin-3-yl}benzamide]	104
CC(C)CNc1nc(C(=O)NCCN2CCCCC2)cn2c(-c3ccc(C(=O)NC4CC4)cc3)cnc12 [Example 8-2, 3-[4-(cyclopropylcarbamoyl)phenyl]-8-[(2-methylpropyl)amino]-N-[2-(piperidin-1-yl)ethyl] imidazo[1,2-a]pyrazine 6-carboxamide]	11.7
